The target in data set [1] is T1, Urotensin-2 receptor (Homo sapiens, UniProt Q9UKP6).
T1 sequence (Q9UKP6 whole entry): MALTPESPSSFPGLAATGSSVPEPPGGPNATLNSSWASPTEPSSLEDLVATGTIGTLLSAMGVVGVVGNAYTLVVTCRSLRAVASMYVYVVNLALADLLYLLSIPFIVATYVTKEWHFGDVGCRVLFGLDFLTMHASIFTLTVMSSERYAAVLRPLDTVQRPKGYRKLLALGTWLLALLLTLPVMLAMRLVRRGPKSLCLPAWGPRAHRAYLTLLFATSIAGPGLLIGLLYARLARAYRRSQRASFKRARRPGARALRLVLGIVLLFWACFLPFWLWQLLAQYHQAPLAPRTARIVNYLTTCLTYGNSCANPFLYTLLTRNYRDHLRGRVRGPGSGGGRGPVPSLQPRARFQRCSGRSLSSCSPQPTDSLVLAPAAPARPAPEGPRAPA
Nature of the data set: Displacement of [125I]human urotensin 2 from human recombinant urotensin 2 receptor expressed in HEK293 cells. It is filed as cell-based. On the technique in general: In a radioligand displacement assay an active substance lowers the binding of a labelled ligand.

The target of data set [2] is T1, Urotensin-2 receptor. In words: Inhibition of human recombinant urotensin 2 receptor-mediated calcium mobilization expressed in HEK293 cells by FLIPR assay. Type of data set: functional, cell-based. On the technique in general: Calcium flux is commonly read through the fluorescence of an indicator in the cells.
In the next data set the test system is Aorta. Nature of the data set: Blockade of human urotensin 2-induced contraction in rat isolated aorta. It is filed as functional.
The target of data set [3] is T1, Urotensin-2 receptor. Nature of the data set: Antagonist activity at human urotensin 2 receptor. It is filed as functional. As to conditions: read-out: pA2 (converted).
A short description of data set [4]: Displacement of [125I]human urotensin 2 from cat urotensin 2 receptor. Also noted: species or system Felis catus.
Data set [5] in a line: Blockade of human urotensin 2-induced contraction in cat isolated femoral artery. Type of data set: functional, Felis catus.
Data set [6] concerns the target T2, Urotensin-2 receptor (Rattus norvegicus, UniProt P49684).
T2 sequence (P49684 whole entry): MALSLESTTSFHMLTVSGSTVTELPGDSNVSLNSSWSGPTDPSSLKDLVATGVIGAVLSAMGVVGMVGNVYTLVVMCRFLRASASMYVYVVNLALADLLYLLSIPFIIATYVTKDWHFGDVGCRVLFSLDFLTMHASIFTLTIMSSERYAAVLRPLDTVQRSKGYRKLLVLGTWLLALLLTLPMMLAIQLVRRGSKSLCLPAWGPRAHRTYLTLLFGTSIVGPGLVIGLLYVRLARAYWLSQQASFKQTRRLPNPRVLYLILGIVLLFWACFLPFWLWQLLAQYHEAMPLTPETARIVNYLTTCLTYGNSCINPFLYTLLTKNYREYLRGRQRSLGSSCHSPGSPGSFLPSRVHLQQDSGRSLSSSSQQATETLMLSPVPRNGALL
In words: Displacement of [125I]human urotensin 2 from rat urotensin 2 receptor.

The nature of data set [7]: Clearance in rat at 1.2 mg/kg, iv and 2.2 mg/kg, po. It is filed as ADME, organism-based. As to conditions: in vivo.
The next data set concerns the target Cytochrome P450 2D6 (Homo sapiens, UniProt P10635). Nature of the data set: Inhibition of CYP2D6. It is filed as ADME.
Data set [8] in a line: Half life in rat at 1.2 mg/kg, iv and 2.2 mg/kg, po. Type of data set: ADME, organism-based. As to conditions: in vivo.
Data set [9] in a line: Bioavailability in rat at 2.2 mg/kg, po. It is filed as ADME, organism-based. As to conditions: in vivo.
Data set [10] is described as follows: Volume of distribution at steady state in rat at 1.2 mg/kg, iv and 2.2 mg/kg, po. As to conditions: in vivo, read-out: Vdss. Type of data set: ADME, organism-based.
The target in a further data set is Cytochrome P450 3A4 (Homo sapiens, UniProt P08684). Nature of the data set: Inhibition of CYP3A4. It is filed as ADME.
Cytochrome P450 3A4, sequence (P08684 whole entry): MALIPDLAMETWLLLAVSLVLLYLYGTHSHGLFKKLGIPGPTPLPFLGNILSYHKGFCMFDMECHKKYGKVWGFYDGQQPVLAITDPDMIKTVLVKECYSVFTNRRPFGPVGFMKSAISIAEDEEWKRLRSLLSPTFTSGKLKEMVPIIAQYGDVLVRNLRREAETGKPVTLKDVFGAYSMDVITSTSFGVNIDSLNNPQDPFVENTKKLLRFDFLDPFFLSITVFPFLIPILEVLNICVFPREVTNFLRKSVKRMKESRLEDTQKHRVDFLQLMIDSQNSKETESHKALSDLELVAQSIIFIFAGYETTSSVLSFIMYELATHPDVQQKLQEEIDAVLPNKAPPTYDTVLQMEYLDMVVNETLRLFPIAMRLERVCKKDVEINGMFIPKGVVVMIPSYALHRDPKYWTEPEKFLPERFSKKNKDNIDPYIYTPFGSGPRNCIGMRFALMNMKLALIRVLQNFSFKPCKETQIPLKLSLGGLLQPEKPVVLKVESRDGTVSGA

Cytochrome P450 2D6, sequence (P10635 whole entry): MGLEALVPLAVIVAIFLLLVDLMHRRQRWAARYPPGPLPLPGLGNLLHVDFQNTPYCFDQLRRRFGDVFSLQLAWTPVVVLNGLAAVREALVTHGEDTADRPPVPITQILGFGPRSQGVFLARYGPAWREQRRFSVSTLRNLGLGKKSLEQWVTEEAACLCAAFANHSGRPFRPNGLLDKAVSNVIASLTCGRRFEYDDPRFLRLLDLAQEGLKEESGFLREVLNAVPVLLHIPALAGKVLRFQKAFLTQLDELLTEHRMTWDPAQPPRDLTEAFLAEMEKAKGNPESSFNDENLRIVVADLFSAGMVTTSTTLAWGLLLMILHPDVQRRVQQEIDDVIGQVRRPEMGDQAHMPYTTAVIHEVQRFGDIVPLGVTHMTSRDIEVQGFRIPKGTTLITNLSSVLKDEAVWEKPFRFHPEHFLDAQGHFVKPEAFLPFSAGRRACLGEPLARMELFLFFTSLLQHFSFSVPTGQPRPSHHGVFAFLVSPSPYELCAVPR

With `CN(CC(=O)N1CCC[C@H](c2ccccc2)[C@@H]1CN1CCCC1)Cc1ccc(Cl)c(Cl)c1`, at Urotensin-2 receptor [1], the inhibition constant Ki is 3980 nM.

For `COc1cccc(N(C)CC(=O)N2CCC[C@H](c3ccccc3)[C@@H]2CN2CCCC2)c1`, the Ki on Urotensin-2 receptor [1] was 794 nM.

Take `Cc1cccc(N(C)CC(=O)N2CCC[C@H](c3ccccc3)[C@@H]2CN2CCCC2)c1`: the inhibition constant Ki at Urotensin-2 receptor [1] was 398 nM.

With `CN(CC(=O)N1CCC[C@@H](c2ccccc2)[C@H]1CN1CCCC1)c1ccc(Cl)c(Cl)c1`, the inhibitory constant (Ki) on Urotensin-2 receptor [1] is 1580 nM.

Consider `CN(CC(=O)N1CCCCC1CN1CCCC1)c1ccc(Cl)c(Cl)c1` (stereo unspecified), for which the inhibition constant Ki on Urotensin-2 receptor [1] is 398 nM. Also, the concentration for half-maximal inhibition (IC50) on Urotensin-2 receptor [2] was 631 nM.

With `O=C(Cc1csc2ccc(Cl)cc12)N1CCCCC1CN1CCCC1` (stereo unspecified), the Ki on Urotensin-2 receptor [1] was 501 nM.

For the molecule `O=C(Cc1csc2ccc(Cl)cc12)N1CCCCC1CN1CCCCC1` (stereo unspecified), on Urotensin-2 receptor [1], the Ki is 7940 nM.

For the molecule `O=C(Cc1c[nH]c2ccc(Br)cc12)N1CCC[C@H](c2ccccc2)[C@@H]1CN1CCCC1`, the Ki on Urotensin-2 receptor [1] was 631 nM.

Turning to `Cc1ccc2scc(CC(=O)N3CCC[C@H](c4ccccc4)[C@@H]3CN3CCCC3)c2c1`, the Ki at Urotensin-2 receptor [1] was 15.8 nM.

Turning to `CC(=O)N(CC(=O)N1CCC[C@H](c2ccccc2)[C@@H]1CN1CCCC1)c1ccc(Cl)c(Cl)c1`, the inhibitory constant (Ki) at Urotensin-2 receptor [1] was 1580 nM.

Consider `CCN(CC(=O)N1CCC[C@H](c2ccccc2)[C@@H]1CN1CCCC1)c1ccc(Cl)c(Cl)c1`, for which the inhibitory constant (Ki) on Urotensin-2 receptor [1] is 31.6 nM.

In the case of `CN(CC(=O)N1CCC[C@H](c2ccccc2)[C@@H]1CN1CCCC1)c1cccc(Cl)c1`, the Ki at Urotensin-2 receptor [1] is 79.4 nM.

For `CS(=O)(=O)N(CC(=O)N1CCC[C@H](c2ccccc2)[C@@H]1CN1CCCC1)c1ccc(Cl)c(Cl)c1`, the Ki on Urotensin-2 receptor [1] was 79.4 nM.

As to `O=C(CN(CC1CC1)c1ccc(Cl)c(Cl)c1)N1CCC[C@H](c2ccccc2)[C@@H]1CN1CCCC1`, the Ki at Urotensin-2 receptor [1] was 50.1 nM.

Turning to `Cc1ccc(N(C)CC(=O)N2CCC[C@H](c3ccccc3)[C@@H]2CN2CCCC2)cc1C`, the Ki at Urotensin-2 receptor [1] was 200 nM.

For the molecule `CN(CC(=O)N1CCC[C@H](c2ccccc2)[C@@H]1CN1CCCC1)c1cccc(C(F)(F)F)c1`, on Urotensin-2 receptor [1], the Ki was 100 nM.

`CN(CC(=O)N1CCC[C@H](c2ccccc2)[C@@H]1CN1CCCC1)c1ccc(Cl)cc1`: the Ki on Urotensin-2 receptor [1] is 501 nM.

Take `O=C(Cc1ccc2ccccc2c1)N1CCC[C@H](c2ccccc2)[C@@H]1CN1CCCC1`: on Urotensin-2 receptor [1], the inhibitory constant (Ki) was 7940 nM.

In the case of `O=C(CNc1ccc(Cl)c(Cl)c1)N1CCC[C@H](c2ccccc2)[C@@H]1CN1CCCC1`, the Ki at Urotensin-2 receptor [1] was 63.1 nM.

Consider `O=C(Cc1csc2ccc(Cl)cc12)N1CCC[C@@H](c2ccccc2)[C@H]1CN1CCCC1`, for which the Ki at Urotensin-2 receptor [1] is 1000 nM.

On to `O=C(Cc1csc2ccc(Cl)cc12)N1CCOCC1CN1CCCC1` (stereo unspecified), for which the Ki at Urotensin-2 receptor [1] was 794 nM.

For the molecule `O=C(Cc1csc2ccccc12)N1CCC[C@H](c2ccccc2)[C@@H]1CN1CCCC1`, at Urotensin-2 receptor [1], the inhibition constant (Ki) is 251 nM.

For the molecule `O=C(Cc1csc2ccc(Cl)cc12)N1CCCCCC1CN1CCCC1` (stereo unspecified), at Urotensin-2 receptor [1], the Ki was 2000 nM.

On to `CN1CCN(CC2CCCCN2C(=O)Cc2csc3ccc(Cl)cc23)CC1` (stereo unspecified), for which the inhibition constant (Ki) on Urotensin-2 receptor [1] is > 7940 nM.

With `O=C(c1cccc2ccccc12)N1CCC[C@H](c2ccccc2)[C@@H]1CN1CCCC1`, at Urotensin-2 receptor [1], the Ki was > 7940 nM.

Turning to `CCN(CC)CC1CCCCN1C(=O)Cc1csc2ccc(Cl)cc12` (stereo unspecified), the inhibition constant (Ki) on Urotensin-2 receptor [1] is > 7940 nM.

As for `O=C(Cc1ccsc1)N1CCC[C@H](c2ccccc2)[C@@H]1CN1CCCC1`, the Ki on Urotensin-2 receptor [1] was > 7940 nM.

For the molecule `O=C(Cc1cccc2ccccc12)N1CCC[C@H](c2ccccc2)[C@@H]1CN1CCCC1`, at Urotensin-2 receptor [1], the Ki was 79.4 nM.

Take `O=C(Cc1ccc(Cl)c(Cl)c1)N1CCC[C@H](c2ccccc2)[C@@H]1CN1CCCC1`: the Ki at Urotensin-2 receptor [1] is 2510 nM.

For the molecule `O=C(Cc1csc2ccc(Cl)cc12)N1CCCC1CN1CCCC1` (stereo unspecified), on Urotensin-2 receptor [1], the Ki was > 7940 nM.

With `O=C(Cc1csc2ccc(Br)cc12)N1CCC[C@H](c2ccccc2)[C@@H]1CN1CCCC1`, on Urotensin-2 receptor [1], the Ki was 7.94 nM.

Regarding `O=C(Cc1csc2ccc(Cl)cc12)N1CCC[C@H](c2ccccc2)[C@@H]1CN1CCCC1`, the pKb in the data set on Aorta is 7.7; in data set [5], 7.2. Moreover, the inhibition constant (Ki) was 3.98 nM at Urotensin-2 receptor [1] and 10 nM on Urotensin-2 receptor [6]. Also, the Kb at Urotensin-2 receptor [3] is 10 nM. Further, in [4], the “Log Ki” value is on record as -8.

Turning to `CN(CC(=O)N1CCC[C@H](c2ccccc2)[C@@H]1CN1CCCC1)c1ccccc1Cl`, on Urotensin-2 receptor [1], the inhibition constant Ki was 794 nM.

As to `Cc1ccc2scc(CCC(=O)N3CCC[C@H](c4ccccc4)[C@@H]3CN3CCCC3)c2c1`, on Urotensin-2 receptor [1], the Ki is 3160 nM.

As for `CN(CC(=O)N1CCC[C@H](c2ccccc2)[C@@H]1CN1CCCC1)c1ccc2ccccc2c1`, on Urotensin-2 receptor [1], the Ki is 158 nM.

With `CN(CC(=O)N1CCC[C@H](c2ccccc2)[C@@H]1CN1CCCC1)c1ccccc1`, the inhibitory constant (Ki) at Urotensin-2 receptor [1] is 3160 nM.

On to `O=C(Cc1csc2ccc(Cl)cc12)N1CCCCC1CN1CCOCC1` (stereo unspecified), for which the inhibitory constant (Ki) on Urotensin-2 receptor [1] is 1260 nM.

Consider `CCCO[C@H]1CCCN(C(=O)Cc2csc3ccc(Cl)cc23)[C@H]1CN1CCCC1` (relative stereo), for which the inhibition constant Ki at Urotensin-2 receptor [1] was 31.6 nM.

`O=C(Cc1csc2ccc(Cl)cc12)N1C[C@H](c2ccccc2)CC[C@H]1CN1CCCC1` (relative stereo): on Urotensin-2 receptor [1], the Ki was 31.6 nM.

Turning to `O=C(Cc1csc2ccc(Cl)cc12)N1CC[C@H](c2ccccc2)C[C@@H]1CN1CCCC1` (relative stereo), the inhibition constant (Ki) on Urotensin-2 receptor [1] was 200 nM.

On to `O=C(Cc1csc2ccc(Cl)cc12)N1CCC[C@H](C2CCCCC2)[C@@H]1CN1CCCC1` (relative stereo), for which the inhibition constant Ki at Urotensin-2 receptor [1] is 25.1 nM.

As for `C[C@H]1CCCN(C(=O)Cc2csc3ccc(Cl)cc23)[C@H]1CN1CCCC1` (relative stereo), the Ki at Urotensin-2 receptor [1] was 200 nM.

On to `O=C(Cc1csc2ccc(Cl)cc12)N1CCC[C@H](c2ccccc2)[C@@H]1CN1CCCC1` (relative stereo), for which the Ki on Urotensin-2 receptor [1] is 7.94 nM.

`CN(CC(=O)N1CCC[C@H](c2ccccc2)[C@@H]1CN1CCCC1)c1ccc(Cl)c(Cl)c1` (stereo in doubt; 10b) returned a clearance in [7] of 97 mL/min/kg. For the same molecule, the concentration for half-maximal inhibition (IC50) against Cytochrome P450 2D6 is 800 nM; against Cytochrome P450 3A4, 1400 nM. The inhibition constant Ki at Urotensin-2 receptor [1] was 15.8 nM. In addition, in data set [8], the half-life is 3.8 h. The molecule further registered a bioavailability in data set [9] of 0%. Also, the Vd in data set [10] was 23 L/kg.

As for `CN(CC(=O)N1CCC[C@H](c2ccccc2)[C@@H]1CN1CCCC1)c1ccc(Cl)c(Cl)c1` (stereo in doubt; 11a), the pKb with Aorta is reported as 7.9; in data set [5], 7.2. For the same molecule, the inhibition constant (Ki) at Urotensin-2 receptor [1] and at Urotensin-2 receptor [6] was 6.31 nM in each case. In addition, the “Log Ki” value in data set [4] is listed as -8.1.

Broadly, the Ki is a dissociation constant, usually derived from enzyme kinetics or from competition with a known ligand. The term IC50 denotes the concentration needed to halve the response being measured. What is called pKb is the negative decadic logarithm of the Kb, by convention in mol/L. By half-life is commonly meant the time in which the quantity being followed falls by half. One may read the bioavailability as dose-corrected exposure relative to a reference, in per cent. Higher therefore signals much systemic uptake.

For the origin of these results see ChEMBL document CHEMBL1145622, “2-Aminomethyl piperidines as novel urotensin-II receptor antagonists” (Bioorg Med Chem Lett, 2008).
